Measured values reported in ChEMBL document CHEMBL6121026, “Targeted Therapeutics in Oncology and Neurology: Advances in Kinase Inhibition and Biomarkers for Brain Injury” (ACS Med Chem Lett, 2025).

How the values were obtained:
[1] = biological target: RAC-alpha serine/threonine-protein kinase (Homo sapiens, UniProt P31749); assay: Inhibition of Nano Luc-fused wild type AKT1 (unknown origin) expressed in HEK293 cells using luciferase substrate preincubated for 2 hrs followed by substrate added by NanoBRET Live cell target engagement assay; assay type: cell-based
Chain of RAC-alpha serine/threonine-protein kinase (P31749 whole entry, the tested form may be a part): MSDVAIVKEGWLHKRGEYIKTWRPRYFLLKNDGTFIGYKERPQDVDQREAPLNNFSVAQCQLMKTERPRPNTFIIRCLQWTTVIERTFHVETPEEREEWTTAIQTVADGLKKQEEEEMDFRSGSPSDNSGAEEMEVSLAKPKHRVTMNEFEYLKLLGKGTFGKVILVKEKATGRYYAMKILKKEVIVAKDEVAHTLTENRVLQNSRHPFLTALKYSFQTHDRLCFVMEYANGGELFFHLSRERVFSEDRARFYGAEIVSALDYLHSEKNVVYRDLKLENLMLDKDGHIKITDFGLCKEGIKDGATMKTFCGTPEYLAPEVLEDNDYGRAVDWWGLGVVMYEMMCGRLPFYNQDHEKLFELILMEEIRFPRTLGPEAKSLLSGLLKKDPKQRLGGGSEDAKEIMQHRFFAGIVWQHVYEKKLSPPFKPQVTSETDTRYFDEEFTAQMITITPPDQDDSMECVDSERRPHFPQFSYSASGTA

[2] = biological target: RAC-beta serine/threonine-protein kinase (Homo sapiens, UniProt P31751); assay: Inhibition of Nano Luc-fused wild type AKT2 (unknown origin) expressed in HEK293 cells using luciferase substrate preincubated for 2 hrs followed by substrate added by NanoBRET Live cell target engagement assay; assay type: cell-based
Chain of RAC-beta serine/threonine-protein kinase (P31751 whole entry, the tested form may be a part): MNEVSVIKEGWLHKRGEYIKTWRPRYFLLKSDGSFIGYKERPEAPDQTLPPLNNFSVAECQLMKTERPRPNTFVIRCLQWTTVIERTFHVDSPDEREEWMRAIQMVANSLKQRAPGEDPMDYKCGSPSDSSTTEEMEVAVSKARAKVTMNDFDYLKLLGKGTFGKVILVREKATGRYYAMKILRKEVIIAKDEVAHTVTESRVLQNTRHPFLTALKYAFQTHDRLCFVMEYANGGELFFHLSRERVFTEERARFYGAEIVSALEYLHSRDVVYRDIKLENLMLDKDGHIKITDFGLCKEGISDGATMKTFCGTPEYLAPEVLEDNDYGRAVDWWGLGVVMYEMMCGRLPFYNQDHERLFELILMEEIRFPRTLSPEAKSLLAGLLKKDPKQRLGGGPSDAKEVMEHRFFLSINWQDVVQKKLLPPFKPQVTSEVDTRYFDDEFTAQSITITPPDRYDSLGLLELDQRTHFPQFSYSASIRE

SMILES	IC50 [1]	IC50 [2]
COc1cnn(-c2ccc3nc(-c4cccnc4N)n(-c4ccc5c(c4)CC[C@@H]5NC(=O)c4ccc(O)c(C=O)c4)c3n2)c1	≤ 100 nM	≥ 2000 nM
Nc1ncccc1-c1nc2ccc(-c3ccccc3F)nc2n1-c1ccc2c(c1)CC[C@@H]2NC(=O)c1ccc(O)c(C=O)c1	≤ 100 nM	≤ 100 nM
Nc1ncccc1-c1nc2ccc(-n3cccn3)nc2n1-c1ccc2c(c1)CC[C@@H]2NC(=O)c1cc(C=O)c(O)c(F)c1F	≤ 100 nM	≤ 100 nM

Second part, the compound after the results:

IC50 [1]	IC50 [2]	SMILES
≤ 100 nM	≤ 100 nM	Nc1ncccc1-c1nc2ccc(-c3ccccc3)nc2n1-c1ccc2c(c1)CC[C@@H]2NC(=O)c1cc(C=O)c(O)c(F)c1F
≤ 100 nM	≤ 100 nM	Nc1ncccc1-c1nc2ccc(-c3ccccc3)nc2n1-c1ccc2c(c1)CC[C@@H]2NC(=O)c1cc(C=O)c2[nH]ncc2c1
≤ 10 nM	≤ 100 nM	CC(=O)Nc1ccc(C(=O)N[C@H]2CCc3cc(-n4c(-c5cccnc5N)nc5ccc(-c6ccccc6)nc54)ccc32)cc1C=O
≤ 100 nM	≥ 2000 nM	CS(=O)(=O)Nc1ccc(C(=O)N[C@H]2CCc3cc(-n4c(-c5cccnc5N)nc5ccc(-n6cccn6)nc54)ccc32)cc1C=O
≤ 10 nM	≤ 10 nM	CN1CCN(c2cccc(-c3ccc4nc(-c5cccnc5N)n(-c5ccc6c(c5)CC[C@@H]6NC(=O)c5ccc(O)c(C=O)c5)c4n3)c2)CC1
